The record followed here is US7091351B2, “Vanadium compounds for treating cancer” (Parker Hughes Institute, priority 1998, dated 2006).

What all share (assay type): cell-based, human
One data set concerns HL-60 cells. Briefly: MTT cytotoxicity assay of oxovanadium(IV) compounds, HL-60. As to conditions: 48 hr. Here is the method:
(§1) The cytotoxicity of oxovanadium (W) complexes listed in Table 6 were tested against 9 different human cancer cell lines was performed using the MTT (3-[4,5-dimethylthiazol-2-yl]-2,5-diphenyl tetrazolium bromide) assay (Boehringer Mannheim Corp., Indianapolis, Ind.) as described previously (20). Briefly, exponentially growing tumor cells were seeded into a 96-well plate at a density of 4×10^4cells/well and incubated with medium containing the oxovanadium(IV) compounds concentrations ranging from 0.1 to 250 μM for 48 hours at 37° C. in a humidified 5% CO2 atmosphere. Triplicate wells were used for each treatment. To each well, 10 μl of MTT (0.5 mg/ml final concentration) was added and the plates were incubated at 37° C. for 4 hours to allow MTT to form formazan crystals by reacting with metabolically active cells . The formazan crystals were solubilized overnight at 37° C. in a solution containing 10% SDS in 0.01 M HCl. The absorbence of each well was measured in a microplate reader (Labsystems) at 540 nm and a reference wavelength of 690 nm. To translate the OD540 values into the number of live cells in each well, the OD540 values were compared to those on standard OD540—versus—cell number curves generated for each cell line. The percent survival was calculated using the formula: % survival=Live cell number[test]/Live cell number [control]×100. The IC50 values were calculated by non-linear regression analysis using an Graphpad Prism software version 2.0 (Graphpad Software, Inc., San Diego, Calif.).

Data set [1] relates to Tera-2 testicular cancer cells. Description: Cytotoxic activity of oxovanadium(IV) compounds, TERA-2. The method, then: as §1
For data set [2], the system named is NTD1 testicular cancer cells. Briefly: Cytotoxic activity of oxovanadium(IV) compounds, NTD1. The method, then: as §1
The subject of another data set is NALM-6 cells. Briefly: MTT cytotoxicity assay of oxovanadium(IV) compounds, NALM-6. As to conditions: 48 hr. Here is the method: as §1
In another data set the test system is U373 glioblastoma cells. Briefly: Cytotoxic activity of oxovanadium(IV) compounds, U373. The method, then: as §1
The subject of a further data set is BT20 breast cancer cells. Briefly: Cytotoxic activity of oxovanadium(IV) compounds, BT20. Here is the method: as §1
The subject of data set [3] is 64cp5 testicular cancer cells. Briefly: Cytotoxic activity of oxovanadium(IV) compounds, 64cp5. Here is the method: as §1
The subject of data set [4] is U266BL multiple myeloma cells. Description: MTT cytotoxicity assay of oxovanadium(IV) compounds, U266BL. The settings on record: 48 hr. The method, then:
as §1

Data set [5] deals with 833-K testicular cancer cells. Briefly: Cytotoxic activity of oxovanadium(IV) compounds, 833-K. The method, then: as §1
The subject of data set [6] is ARH77 multiple myeloma cells. Description: MTT cytotoxicity assay of oxovanadium(IV) compounds, ARH77. The settings on record: 48 hr. Here is the method: as §1, with “Briefly, exponentially growing tumor cells were seeded into a 96-well plate at a density of 4×10^4cells/well and incubated with medium containing the oxovanadium(IV) compounds concentrations ranging from 0.1 to 250 μM for 48 hours at 37° C. in a humidified 5% CO2 atmosphere.” left out

A further data set has as its system MOLT-3 cells. Briefly: MTT cytotoxicity assay of oxovanadium(IV) compounds, MOLT-3. As to conditions: 48 hr. The method, then: as §1
For data set [7], the system named is HS-SULTAN multiple myeloma cells. Description: MTT cytotoxicity assay of oxovanadium(IV) compounds, HS-SULTAN. The settings on record: 48 hr. The method, then:
as §1

In data set [8] the test system is HS445 Hodgkin's lymphoma cells. Briefly: MTT cytotoxicity assay of oxovanadium(IV) compounds, HS445. As to conditions: 48 hr. Here is the method:
as §1

Data set [9] has as its system PC3 prostate cancer cells. Description: Cytotoxic activity of oxovanadium(IV) compounds, PC3. The method, then: as §1
Setting [10] is: read-out: Cytotoxic Activity TERA-2.
The mark [11] stands for this setting: read-out: Cytotoxic Activity NTD1.
Setting [12] is: read-out: Cytotoxic Activity U373.
Setting [13] is: read-out: Cytotoxic Activity BT20.
Setting [14] is: read-out: Cytotoxic Activity 64cp5.
Where [15] appears, read: read-out: Cytotoxic Activity 833-K.
[16] abbreviates: read-out: Cytotoxic Activity PC3.

Like-named read-outs stand apart in the source and are kept apart here.

“bis(4,4′-dimethyl-2,2′-bipyridyl) sulfatooxovanadium(IV) [Compound 37]”: the IC50 with HL-60 cells is 28.4 ± 3.8 µM; in data set [1] (setting [10]), greater than 100 µM; in [2] (setting [11]), greater than 100 µM; in the data set with NALM-6 cells, 3.9 ± 0.3 µM; in the data set on U373 glioblastoma cells (setting [12]), 25.6 µM; in the data set on BT20 breast cancer cells (setting [13]), 15.7 µM. The IC50 in [3] (setting [14]) was greater than 100 µM; in data set [4], 13.3 ± 5.1 µM; in [5] (setting [15]), 34.9 µM; in [6], 58.3 ± 6.8 µM; in the data set on MOLT-3 cells it was 4.8 ± 0.3 µM; in data set [7], 11.4 ± 2.2 µM. In addition, in data set [8], the IC50 is 12.6 ± 3.3 µM.
For “(diaqua)(4,4′-dimethyl-2,2′-bipyridyl)oxovanadium(IV) sulfate [Compound 36]”, the IC50 was 38.6 ± 4.5 µM with HL-60 cells; greater than 100 µM in data set [1] (setting [10]); greater than 100 µM in data set [2] (setting [11]); 8.5 ± 0.5 µM in the data set on NALM-6 cells; greater than 100 µM with U373 glioblastoma cells (setting [12]); greater than 100 µM in the data set on BT20 breast cancer cells (setting [13]). Moreover, the IC50 is greater than 100 µM in data set [3] (setting [14]); 38.4 ± 3.2 µM in data set [4]; greater than 100 µM in data set [5] (setting [15]); greater than 100 µM in data set [6]; 8.2 ± 0.5 µM in the data set on MOLT-3 cells; 65.1 ± 6.1 µM in [7]. In addition, the IC50 in data set [8] came out at 27.8 ± 3.4 µM.
Consider “(diaqua)(5-nitro-1,10-phenanthroline)oxovanadium(IV) sulfate [Compound 32]”, for which the IC50 amounted to 12.9 µM in data set [9] (setting [16]); 4.9 ± 1.2 µM with HL-60 cells; 7.2 µM in data set [1] (setting [10]); 20.2 µM in data set [2] (setting [11]); 4.1 ± 0.4 µM with NALM-6 cells; 20.5 µM in the data set on U373 glioblastoma cells (setting [12]). Moreover, the IC50 is 13.7 µM in the data set on BT20 breast cancer cells (setting [13]); 25.4 µM in data set [3] (setting [14]); 18.1 ± 5.1 µM in [4]; 11.5 µM in data set [5] (setting [15]); 5.4 ± 1.5 µM in [6]; 2.3 ± 0.3 µM in the data set on MOLT-3 cells. For the same molecule, the values for the IC50 in data set [7] and in [8] were 14.5 ± 2.5 µM and 9.1 ± 2.5 µM, respectively.
Take “bis(2,2′-bipyridyl)sulfatooxovanadium(IV) [Compound 35]”: the IC50 is 56.2 µM in [9] (setting [16]); 31.4 ± 6.9 µM in the data set with HL-60 cells; greater than 100 µM in data set [1] (setting [10]); greater than 100 µM in data set [2] (setting [11]); 15.5 ± 3.8 µM with NALM-6 cells; greater than 100 µM in the data set with U373 glioblastoma cells (setting [12]). Besides, the IC50 with BT20 breast cancer cells (setting [13]) was 70.8 µM; in data set [3] (setting [14]), greater than 100 µM; in data set [4] it was 32.1 ± 5.2 µM; in [5] (setting [15]) it was 96.2 µM; in data set [6], 26.8 ± 5.4 µM; with MOLT-3 cells, 14.2 ± 3.8 µM. Further, the IC50 is 35.4 ± 3.3 µM in data set [7] and 21.6 ± 4.3 µM in data set [8].
With “(diaqua)(5-chloro-1,10-phenanthroline)oxovanadium(IV) sulfate [Compound 30]”, the IC50 in data set [9] (setting [16]) is 12.4 µM; in the data set on HL-60 cells it was 15.3 ± 4.9 µM; in data set [1] (setting [10]) it was 18.1 µM; in data set [2] (setting [11]), greater than 100 µM; in the data set on NALM-6 cells, 3.6 ± 0.07 µM; in the data set on U373 glioblastoma cells (setting [12]), 22.4 µM. Besides, the IC50 worked out at 18.2 µM in the data set on BT20 breast cancer cells (setting [13]); 10.9 µM in data set [3] (setting [14]); 8.5 ± 1.2 µM in [4]; 12.8 µM in data set [5] (setting [15]); 30.3 ± 5.6 µM in data set [6]; 3.4 ± 0.03 µM with MOLT-3 cells. In addition, the IC50 in [7] came out at 9.9 ± 5.4 µM; in data set [8], 7.5 ± 2.5 µM.
As to “(diaqua)(2,2′-bipyrimidine)oxovanadium(IV) sulfate [Compound 38]”, the IC50 in the data set on HL-60 cells is greater than 100 µM; in [1] (setting [10]), 74.3 µM; in [2] (setting [11]) it was greater than 100 µM; in the data set on NALM-6 cells it was 12.1 ± 1.6 µM; with U373 glioblastoma cells (setting [12]) it was greater than 100 µM; in the data set on BT20 breast cancer cells (setting [13]), greater than 100 µM. The IC50 in [3] (setting [14]) was greater than 100 µM; in data set [4], 91.2 ± 9.9 µM; in [5] (setting [15]), greater than 100 µM; in data set [6], greater than 100 µM; in the data set with MOLT-3 cells, 27.7 ± 2.5 µM; in [7] it was greater than 100 µM. The IC50 in data set [8] is 96.5 ± 8.6 µM.
For the molecule “bis(5-chloro-1,10-phenanthroline)sulfatooxovanadium(IV) [Compound 31]”, the IC50 in data set [9] (setting [16]) amounted to 4.6 µM; in the data set on HL-60 cells, 5.3 ± 1.8 µM; in [1] (setting [10]), 24.2 µM; in data set [2] (setting [11]), 50.1 µM; in the data set with NALM-6 cells, 1.6 ± 0.03 µM; in the data set on U373 glioblastoma cells (setting [12]), 6.3 µM. For the same molecule, the IC50 in the data set on BT20 breast cancer cells (setting [13]) was 5.4 µM; in data set [3] (setting [14]), greater than 100 µM; in data set [4], 3.7 ± 1.1 µM; in [5] (setting [15]), 4.6 µM; in the data set on MOLT-3 cells, 2.1 ± 0.2 µM; in data set [7], 5.8 ± 0.6 µM. For the same molecule, the IC50 in [8] was 5.2 ± 1.1 µM.
On to “bis(2,2′-bipyrimidine)sulfatooxovanadium(IV) [Compound 39]”, for which the IC50 in the data set with HL-60 cells was greater than 100 µM; in data set [1] (setting [10]), greater than 100 µM; in [2] (setting [11]), greater than 100 µM; in the data set with NALM-6 cells, 12.2 ± 2.3 µM; in the data set with U373 glioblastoma cells (setting [12]) it was greater than 100 µM; in the data set with BT20 breast cancer cells (setting [13]), greater than 100 µM. Also, the IC50 was greater than 100 µM in [3] (setting [14]); 99.1 ± 8.1 µM in data set [4]; greater than 100 µM in data set [5] (setting [15]); greater than 100 µM in data set [6]; 35.1 ± 4.7 µM in the data set with MOLT-3 cells; greater than 100 µM in [7]. This molecule had an IC50 in data set [8] of 98.4 ± 9.1 µM.
For “(diaqua)(2,2′ bipyridyl)oxovanadium(IV) sulfate [Compound 34]”, the IC50 in data set [9] is 55.8 µM; with HL-60 cells, greater than 100 µM; in data set [1], greater than 100 µM; in data set [2], greater than 100 µM; with NALM-6 cells, 14.9 ± 0.6 µM; with U373 glioblastoma cells it was 58.4 µM. Moreover, the IC50 was 51.2 µM in the data set with BT20 breast cancer cells; greater than 100 µM in data set [3]; 30.4 ± 7.8 µM in data set [4]; greater than 100 µM in data set [5]; greater than 100 µM in data set [6]; 13.1 ± 1.1 µM with MOLT-3 cells. Also, the results for the IC50 in data set [7] and in data set [8] were 62.8 ± 2.3 µM and 41.7 ± 5.4 µM, respectively.
With “bis(5-nitro-1,10-phenanthroline)sulfatooxovanadium(IV) [Compound 33]”, the IC50 in [9] (setting [16]) came out at 6.1 µM; in the data set on HL-60 cells, 2.6 ± 0.4 µM; in data set [1] (setting [10]), 2.6 µM; in data set [2] (setting [11]), 9.1 µM; in the data set with NALM-6 cells it was 0.7 ± 0.01 µM; with U373 glioblastoma cells (setting [12]), 7.2 µM. Further, the IC50 in the data set with BT20 breast cancer cells (setting [13]) was found to be 5.6 µM; in data set [3] (setting [14]) it was 5.9 µM; in data set [4], 7.2 ± 1.1 µM; in [5] (setting [15]), 1.1 µM; in data set [6], 5.7 ± 1.3 µM; in the data set with MOLT-3 cells it was 1.4 ± 0.06 µM. The IC50 in data set [7] was 13.8 ± 3.6 µM; in data set [8], 2.3 ± 0.6 µM.
With `CC(=O)c1cc(Br)ccc1[O][V](=[O])[O]c1ccc(Br)cc1C(C)=O` [Compound 40, bis(5′-bromo-2′-hydroxyacetophenone)oxovanadium(IV)], the IC50 with HL-60 cells was greater than 100 µM; in [1] (setting [10]) it was 35.4 µM; in [2] (setting [11]), greater than 100 µM; in the data set with NALM-6 cells, 17.4 ± 0.9 µM; in the data set with U373 glioblastoma cells (setting [12]) it was greater than 100 µM; in the data set on BT20 breast cancer cells (setting [13]), greater than 100 µM. Further, the IC50 in [3] (setting [14]) is greater than 100 µM; in data set [4], 98.1 ± 6.7 µM; in data set [5] (setting [15]), greater than 100 µM; in [6] it was greater than 100 µM; in the data set on MOLT-3 cells, 41.8 ± 3.9 µM; in data set [7], 78.4 ± 5.8 µM. Moreover, the IC50 in [8] stood at 96.5 ± 6.4 µM.
